{
  "source": "patent US20150030566A1",
  "about": "“ANTIMICROBIAL PEPTIDE COMPOSITIONS FOR PLANTS” (Stellenbosch University, priority 2012, published 2015)",
  "key": {"Fusarium solani": {"system": "Fusarium solani", "experiment": "Microdilution broth assay", "type": "cell-based", "design": "MIC against F. solani in PDB (n): unit not given beside the values", "conditions": "for MIC against F. solani in PDB (n): potato dextrose broth (low salt PDB)", "protocol": "(§1) Microdilution broth and agar assays were used to assess the antifungal activity of the cyclic decapeptides in liquid media and on solid (gel) media, respectively.\n(§2) The antibacterial activity of the tyrocidines and gramicidin S against all the bacteria tested was determined by the methods described by Du Toit E A and Rautenbach M (2000) J. Microbiol. Methods, 42, 159-165. The antifungal activity of the tyrocidines against all the […] tested was determined by the methods described by Troskie A M, Vlok N M and Rautenbach M (2012) J. Microbiol. Methods, 91, 551-558."}, "Botrytis cinerea": {"system": "Botrytis cinerea", "experiment": "Microdilution broth assay", "type": "cell-based", "design": "MIC + SEM / MIC against B. cinerea in PDB (n): unit not given beside the values", "protocol": "as §1, §2"}, "black foot disease": {"system": "black foot disease", "conditions": "field conditions; Halleen et al. 2007; cited from earlier work"}, "[1]": {"system": "Cylindrocarpon and Campylocarpon spp", "conditions": "13 fungicides evaluated; Halleen et al. 2007; cited from earlier work"}, "[2]": {"conditions": "potato dextrose broth (low salt PDB)"}},
  "note": "Where two headings read alike, the source gives them in different places. Non-standard residues stand in square brackets, D forms with d. Residues, ends and D or L forms follow the SMILES beside them. No end group written: not given here. Orn = NCCC[C@H](N)C(=O)O",
  "data": [
    {"compound": "Cyclo-(VOLfPWwNQY) (chain 1 V[Orn]L[dF]PW[dW]NQY; chain 2 V[Orn]L[dF]PW[dW]NQY; also: head-to-tail to a chain's N/C-terminus; listed as Bacillus aneurinolyticus) [TrcC]", "values": [
      {"measurement": "MIC against F. solani in PDB (n)", "setting": "Fusarium solani", "value": "4.3 ± 0.4 (3)"},
      {"measurement": "MIC against B. cinerea in PDB (n)", "setting": "Botrytis cinerea; [2]", "value": "3.5 ± 0.2 (6)"}
    ]},
    {"compound": "Cyclo-(VOLfPFfNQF) (chain 1 V[Orn]L[dF]PF[dF]NQF; chain 2 V[Orn]L[dF]PF[dF]NQF; also: head-to-tail to a chain's N/C-terminus; listed as Bacillus aneurinolyticus) [PhcA]", "values": [
      {"measurement": "loss of activity from PDB to YTSB", "setting": "Fusarium solani; F. solani, PDB (low salt) vs YTSB (high salt)", "value": "~5", "unit": "fold"},
      {"measurement": "MIC against F. solani in PDB (n)", "setting": "Fusarium solani", "value": "7.2 ± 1.0 (3)"},
      {"measurement": "loss of activity from PDB to YTSB", "setting": "Botrytis cinerea; B. cinerea, PDB (low salt) vs YTSB (high salt)", "value": "~2", "unit": "fold"},
      {"measurement": "MIC against B. cinerea in PDB (n)", "setting": "Botrytis cinerea; [2]", "value": "6.9 ± 1.4 (5)"}
    ]},
    {"compound": "Cyclo-(VKLfPWwNQY) (chain 1 VKL[dF]PW[dW]NQY; chain 2 VKL[dF]PW[dW]NQY; also: head-to-tail to a chain's N/C-terminus; listed as Bacillus aneurinolyticus) [TrcC1]", "values": [
      {"measurement": "MIC against F. solani in PDB (n)", "setting": "Fusarium solani", "value": "32 ± 2.8 (3)"},
      {"measurement": "MIC against B. cinerea in PDB (n)", "setting": "Botrytis cinerea; [2]", "value": "8.9 ± 1.5 (3)"}
    ]},
    {"compound": "Cyclo-(VOLfP(W,f)NQY) (VXLFPWFNQY; HELM PEPTIDE1{V.[Orn].L.[dF].P.W.[dF].N.Q.Y}$PEPTIDE1,PEPTIDE1,1:R1-10:R2$$$V2.0; SMILES CC(C)C[C@@H]1NC(=O)[C@H](CCCN)NC(=O)[C@H](C(C)C)NC(=O)[C@H](Cc2ccc(O)cc2)NC(=O)[C@H](CCC(N)=O)NC(=O)[C@H](CC(N)=O)NC(=O)[C@@H](Cc2ccccc2)NC(=O)[C@H](Cc2c[nH]c3ccccc23)NC(=O)[C@@H]2CCCN2C(=O)[C@@H](Cc2ccccc2)NC1=O) [TrcB/B′]", "values": [
      {"measurement": "MIC against F. solani in PDB (n)", "setting": "Fusarium solani", "value": "11 ± 4.0 (3)"},
      {"measurement": "MIC against B. cinerea in PDB (n)", "setting": "Botrytis cinerea; [2]", "value": "5.1 ± 1.0 (6)"}
    ]},
    {"compound": "C=CCOC(Cn1ccnc1)c1ccc(Cl)cc1Cl", "note": "(centres unmarked) [imazalil]", "values": [
      {"measurement": "protection of propagation material against black foot disease", "setting": "black foot disease", "value": "failed to protect propagation against black foot disease under field conditions"},
      {"measurement": "in vitro mycelial inhibition", "setting": "[1]", "value": "able to effectively reduce mycelial growth in all fungal strains tested"}
    ]},
    {"compound": "CCCN(CCOc1c(Cl)cc(Cl)cc1Cl)C(=O)n1ccnc1.CCCN(CCOc1c(Cl)cc(Cl)cc1Cl)C(=O)n1ccnc1.CCCN(CCOc1c(Cl)cc(Cl)cc1Cl)C(=O)n1ccnc1.CCCN(CCOc1c(Cl)cc(Cl)cc1Cl)C(=O)n1ccnc1.[Cl][Mn][Cl]", "note": "[prochloraz manganese chloride]", "values": [
      {"measurement": "protection of propagation material against black foot disease", "setting": "black foot disease", "value": "failed to protect propagation against black foot disease under field conditions"},
      {"measurement": "in vitro mycelial inhibition", "setting": "[1]", "value": "able to effectively reduce mycelial growth in all fungal strains tested"}
    ]},
    {"compound": "Cyclo-(VKLfPFfNQY) (chain 1 VKL[dF]PF[dF]NQY; chain 2 VKL[dF]PF[dF]NQY; also: head-to-tail to a chain's N/C-terminus; listed as Bacillus aneurinolyticus) [TrcA1]", "values": [
      {"measurement": "MIC against F. solani in PDB (n)", "setting": "Fusarium solani", "value": "7.9 ± 0.7 (3)"},
      {"measurement": "MIC against B. cinerea in PDB (n)", "setting": "Botrytis cinerea; [2]", "value": "4.1 ± 0.7 (6)"}
    ]},
    {"compound": "Cyclo-(VKLfP(W,f)NQY) (VKLFPWFNQY; HELM PEPTIDE1{V.K.L.[dF].P.W.[dF].N.Q.Y}$PEPTIDE1,PEPTIDE1,1:R1-10:R2$$$V2.0; SMILES CC(C)C[C@@H]1NC(=O)[C@H](CCCCN)NC(=O)[C@H](C(C)C)NC(=O)[C@H](Cc2ccc(O)cc2)NC(=O)[C@H](CCC(N)=O)NC(=O)[C@H](CC(N)=O)NC(=O)[C@@H](Cc2ccccc2)NC(=O)[C@H](Cc2c[nH]c3ccccc23)NC(=O)[C@@H]2CCCN2C(=O)[C@@H](Cc2ccccc2)NC1=O) [TrcB1/B1′]", "values": [
      {"measurement": "MIC against F. solani in PDB (n)", "setting": "Fusarium solani", "value": "5.9 ± 0.6 (3)"},
      {"measurement": "MIC against B. cinerea in PDB (n)", "setting": "Botrytis cinerea; [2]", "value": "3.6 ± 0.1 (6)"}
    ]},
    {"compound": "CCCCNC(=O)n1c(NC(=O)OC)nc2ccccc21", "note": "[benomyl]", "values": [
      {"measurement": "protection of propagation material against black foot disease", "setting": "black foot disease", "value": "failed to protect propagation against black foot disease under field conditions"},
      {"measurement": "in vitro mycelial inhibition", "setting": "[1]", "value": "able to effectively reduce mycelial growth in all fungal strains tested"}
    ]},
    {"compound": "CC(C)C[C@@H]1NC(=O)[C@H](CCCN)NC(=O)[C@H](C(C)C)NC(=O)[C@H](Cc2ccc(O)cc2)NC(=O)[C@H](CCC(N)=O)NC(=O)[C@H](CC(N)=O)NC(=O)[C@@H](Cc2ccccc2)NC(=O)[C@H](Cc2ccccc2)NC(=O)C2CCCN2C(=O)[C@@H](Cc2ccccc2)NC1=O", "note": "(some centres unmarked) [TrcA, Cyclo-(VOLfPFfNQY)] (HELM PEPTIDE1{F.[dF].N.Q.Y.V.[Orn].L.[dF].[O=C(C1CCCN1[*:1])[*:2]]}$PEPTIDE1,PEPTIDE1,1:R1-10:R2$$$V2.0)", "values": [
      {"measurement": "MIC against F. solani in PDB (n)", "setting": "Fusarium solani", "value": "4.0 ± 0.4 (3)"},
      {"measurement": "MIC against B. cinerea in PDB (n)", "setting": "Botrytis cinerea", "value": "5.2 ± 0.6 (6)"}
    ]},
    {"compound": "Cyclo-(VOLfPWwNQW) (chain 1 V[Orn]L[dF]PW[dW]NQW; chain 2 V[Orn]L[dF]PW[dW]NQW; also: head-to-tail to a chain's N/C-terminus; listed as Bacillus aneurinolyticus) [TpcC]", "values": [
      {"measurement": "decrease in activity from YTSB to PDB", "setting": "Fusarium solani; F. solani, YTSB (high salt) vs PDB (low salt)", "value": "approximately twofold"},
      {"measurement": "MIC against F. solani in PDB (n)", "setting": "Fusarium solani", "value": "4.6 ± 0.9 (3)"},
      {"measurement": "decrease in activity from PDB to YTSB", "setting": "Botrytis cinerea; B. cinerea, YTSB (high salt) vs PDB (low salt)", "value": "approximately twofold"},
      {"measurement": "MIC against B. cinerea in PDB (n)", "setting": "Botrytis cinerea; [2]", "value": "3.6 ± 0.2 (6)"}
    ]}
  ]
}
